# Results published in ChEMBL document CHEMBL1201862, “PubChem BioAssay data set” (2004).
#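 The compound was tested at five concentrations on cells cultured in 96-well plates, with a 48-hour exposure period. Abbreviation: GI50, concentration required for 50% inhibition of growth.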 Active and inactive are the calls of the source. No stated cut-off is given here; in the data, active = GI50 up to about 1.1 µM and inactive = higher.
# Columns and labels:
# Assay in all cases: NCI-60 cell line screen, 48 h
# OVCAR-8 = system: OVCAR-8
# IGROV-1 = system: IGROV-1
# MDA-N = system: MDA-N
# NCI-H460 = system: NCI-H460
# SNB-19 = system: SNB-19
# EKVX = system: EKVX
# SW-620 = system: SW-620
# K562 = system: K562
# DU-145 = system: DU-145
# NCI-H23 = system: NCI-H23
# SK-MEL-28 = system: SK-MEL-28
# NCI/ADR-RES = system: NCI/ADR-RES
# M14 = system: M14
# SK-MEL-2 = system: SK-MEL-2
# T47D = system: T47D
# RXF 393 = system: RXF 393
# UO-31 = system: UO-31
# HOP-62 = system: HOP-62
# HT-29 = system: HT-29
# HCT-15 = system: HCT-15
# MOLT-4 = system: MOLT-4
# MDA-MB-435 = system: MDA-MB-435
# OVCAR-3 = system: OVCAR-3
# MCF7 = system: MCF7
# HCC 2998 = system: HCC 2998
# KM12 = system: KM12
# 786-0 = system: 786-0
# SK-OV-3 = system: SK-OV-3
# HOP-92 = system: HOP-92
# ACHN = system: ACHN
# OVCAR-5 = system: OVCAR-5
# CCRF-CEM = system: CCRF-CEM
# COLO 205 = system: COLO 205
# NCI-H522 = system: NCI-H522
# U-251 = system: U-251
# MDA-MB-231 = system: MDA-MB-231
# A549 = system: A549
# UACC-257 = system: UACC-257
# Malme-3M = system: Malme-3M
# BT-549 = system: BT-549
# PC-3 = system: PC-3
# LOX IMVI = system: LOX IMVI
# UACC-62 = system: UACC-62
# SN12C = system: SN12C
# CAKI-1 = system: CAKI-1
# SF-268 = system: SF-268
# Hs-578T = system: Hs-578T
# SF-295 = system: SF-295
# SK-MEL-5 = system: SK-MEL-5
# TK-10 = system: TK-10
# OVCAR-4 = system: OVCAR-4
# SNB-75 = system: SNB-75
# HCT-116 = system: HCT-116
# HL-60 = system: HL-60
# NCI-H226 = system: NCI-H226
# A498 = system: A498
# SF-539 = system: SF-539
# RPMI-8226 = system: RPMI-8226
# SR = system: SR
structure (smiles),measurement,setting,value
COc1cc2nc(Nc3cccc(Br)c3)nc(Nc3cccc(Br)c3)c2cc1OC,GI50,OVCAR-8,16.6 µM (inactive)
same,GI50,IGROV-1,15.1 µM (inactive)
same,GI50,MDA-N,18.7 µM (inactive)
same,GI50,NCI-H460,24.3 µM (inactive)
same,GI50,SNB-19,16.8 µM (inactive)
same,GI50,EKVX,19.1 µM (inactive)
same,GI50,SW-620,24.2 µM (inactive)
same,GI50,K562,22.8 µM (inactive)
same,GI50,DU-145,18.3 µM (inactive)
same,GI50,NCI-H23,17.7 µM (inactive)
same,GI50,SK-MEL-28,17.2 µM (inactive)
same,GI50,NCI/ADR-RES,19.6 µM (inactive)
same,GI50,M14,18.2 µM (inactive)
same,GI50,SK-MEL-2,18.4 µM (inactive)
same,GI50,T47D,17.1 µM (inactive)
same,GI50,RXF 393,18.4 µM (inactive)
same,GI50,UO-31,16 µM (inactive)
same,GI50,HOP-62,18 µM (inactive)
same,GI50,HT-29,18.7 µM (inactive)
same,GI50,HCT-15,17.7 µM
same,GI50,MOLT-4,20.4 µM (inactive)
same,GI50,MDA-MB-435,19.7 µM (inactive)
same,GI50,OVCAR-3,16.6 µM (inactive)
same,GI50,MCF7,16.9 µM (inactive)
same,GI50,HCC 2998,23.6 µM (inactive)
same,GI50,KM12,18.9 µM (inactive)
same,GI50,786-0,17.3 µM (inactive)
same,GI50,SK-OV-3,19.2 µM (inactive)
same,GI50,HOP-92,15.3 µM (inactive)
same,GI50,ACHN,16 µM (inactive)
same,GI50,OVCAR-5,23.1 µM (inactive)
same,GI50,CCRF-CEM,22.2 µM (inactive)
same,GI50,COLO 205,13.9 µM (inactive)
same,GI50,NCI-H522,16.7 µM (inactive)
same,GI50,U-251,19.2 µM (inactive)
same,GI50,MDA-MB-231,21.8 µM (inactive)
same,GI50,A549,17.3 µM (inactive)
same,GI50,UACC-257,> 10 µM (inactive)
same,GI50,Malme-3M,19.1 µM (inactive)
same,GI50,BT-549,17 µM (inactive)
same,GI50,PC-3,20.4 µM (inactive)
same,GI50,LOX IMVI,16.7 µM (inactive)
same,GI50,UACC-62,18.8 µM (inactive)
same,GI50,SN12C,16.4 µM (inactive)
same,GI50,CAKI-1,15.7 µM (inactive)
same,GI50,SF-268,16.2 µM (inactive)
same,GI50,Hs-578T,19.8 µM (inactive)
same,GI50,SF-295,17.7 µM (inactive)
same,GI50,SK-MEL-5,17 µM (inactive)
same,GI50,TK-10,21.5 µM (inactive)
same,GI50,OVCAR-4,15.7 µM (inactive)
same,GI50,SNB-75,17.3 µM (inactive)
same,GI50,HCT-116,17.6 µM (inactive)
CCCCn1c(-c2ccc([N+](=O)[O-])cc2)cs/c1=N/N=C1\C(=O)Nc2ccc(Br)cc21,GI50,HL-60,16.9 µM (inactive)
same,GI50,OVCAR-8,30 µM (inactive)
same,GI50,IGROV-1,19.1 µM (inactive)
same,GI50,MDA-N,16.2 µM (inactive)
same,GI50,NCI-H460,14.6 µM (inactive)
same,GI50,SNB-19,21.8 µM (inactive)
same,GI50,EKVX,24.7 µM (inactive)
same,GI50,SW-620,39.6 µM (inactive)
same,GI50,K562,15.7 µM (inactive)
same,GI50,DU-145,13.8 µM (inactive)
same,GI50,NCI-H23,16.6 µM (inactive)
same,GI50,NCI-H226,21.1 µM (inactive)
same,GI50,SK-MEL-28,29.4 µM (inactive)
same,GI50,NCI/ADR-RES,17.1 µM (inactive)
same,GI50,M14,12.1 µM (inactive)
same,GI50,T47D,7.11 µM (inactive)
same,GI50,RXF 393,8 µM (inactive)
same,GI50,UO-31,18.6 µM (inactive)
same,GI50,HOP-62,15.7 µM (inactive)
same,GI50,HT-29,13.3 µM (inactive)
same,GI50,HCT-15,21.9 µM
same,GI50,MOLT-4,7.43 µM (inactive)
same,GI50,MDA-MB-435,14.1 µM (inactive)
same,GI50,OVCAR-3,15.5 µM (inactive)
same,GI50,MCF7,3.28 µM (inactive)
same,GI50,HCC 2998,17.9 µM (inactive)
same,GI50,KM12,14.6 µM (inactive)
same,GI50,A498,17.4 µM (inactive)
same,GI50,786-0,11.8 µM (inactive)
same,GI50,SK-OV-3,19.5 µM (inactive)
same,GI50,HOP-92,26 µM (inactive)
same,GI50,ACHN,12.9 µM (inactive)
same,GI50,OVCAR-5,30.5 µM (inactive)
same,GI50,CCRF-CEM,17.8 µM (inactive)
same,GI50,COLO 205,13.6 µM (inactive)
same,GI50,NCI-H522,14.2 µM (inactive)
same,GI50,U-251,10.4 µM (inactive)
same,GI50,MDA-MB-231,15.7 µM (inactive)
same,GI50,A549,15.9 µM (inactive)
same,GI50,UACC-257,18.2 µM (inactive)
same,GI50,Malme-3M,28.3 µM (inactive)
same,GI50,BT-549,22.6 µM (inactive)
same,GI50,LOX IMVI,18.9 µM (inactive)
same,GI50,UACC-62,19.6 µM (inactive)
same,GI50,SN12C,3.78 µM (inactive)
same,GI50,CAKI-1,21.4 µM (inactive)
same,GI50,SF-268,29.9 µM (inactive)
same,GI50,Hs-578T,43.2 µM (inactive)
same,GI50,SF-295,22.9 µM (inactive)
same,GI50,SK-MEL-5,14.1 µM (inactive)
same,GI50,TK-10,12.3 µM (inactive)
same,GI50,OVCAR-4,12.6 µM (inactive)
same,GI50,SNB-75,20.3 µM (inactive)
same,GI50,HCT-116,12.9 µM (inactive)
same,GI50,SF-539,14 µM (inactive)
O=C(N/N=C(/c1ccccc1)C(F)(F)F)c1ccncc1,GI50,HL-60,> 100 µM (inactive)
same,GI50,OVCAR-8,> 100 µM (inactive)
same,GI50,IGROV-1,> 100 µM (inactive)
same,GI50,MDA-N,> 100 µM (inactive)
same,GI50,NCI-H460,> 100 µM (inactive)
same,GI50,SNB-19,> 100 µM (inactive)
same,GI50,RPMI-8226,> 100 µM (inactive)
same,GI50,K562,35.1 µM (inactive)
same,GI50,DU-145,> 100 µM (inactive)
same,GI50,NCI-H23,> 100 µM (inactive)
same,GI50,NCI-H226,> 100 µM (inactive)
same,GI50,SK-MEL-28,> 100 µM (inactive)
same,GI50,NCI/ADR-RES,> 100 µM (inactive)
same,GI50,M14,> 100 µM (inactive)
same,GI50,SK-MEL-2,> 100 µM (inactive)
same,GI50,T47D,> 100 µM (inactive)
same,GI50,RXF 393,0.923 µM (active)
same,GI50,UO-31,> 100 µM (inactive)
same,GI50,HOP-62,> 100 µM (inactive)
same,GI50,HT-29,> 100 µM (inactive)
same,GI50,HCT-15,> 100 µM
same,GI50,MOLT-4,64.3 µM (inactive)
same,GI50,MDA-MB-435,> 100 µM (inactive)
same,GI50,OVCAR-3,> 100 µM (inactive)
same,GI50,MCF7,> 100 µM (inactive)
same,GI50,HCC 2998,> 100 µM (inactive)
same,GI50,KM12,> 100 µM (inactive)
same,GI50,A498,> 100 µM (inactive)
same,GI50,SK-OV-3,> 100 µM (inactive)
same,GI50,HOP-92,> 100 µM (inactive)
same,GI50,OVCAR-5,> 100 µM (inactive)
same,GI50,CCRF-CEM,76 µM (inactive)
same,GI50,COLO 205,> 100 µM (inactive)
same,GI50,NCI-H522,> 100 µM (inactive)
same,GI50,U-251,> 100 µM (inactive)
same,GI50,Malme-3M,> 100 µM (inactive)
same,GI50,BT-549,> 100 µM (inactive)
same,GI50,SR,> 100 µM (inactive)
same,GI50,PC-3,> 100 µM (inactive)
same,GI50,UACC-62,> 100 µM (inactive)
same,GI50,SN12C,> 100 µM (inactive)
same,GI50,CAKI-1,> 100 µM (inactive)
same,GI50,Hs-578T,> 100 µM (inactive)
same,GI50,SF-295,> 100 µM (inactive)
same,GI50,SK-MEL-5,> 100 µM (inactive)
same,GI50,TK-10,> 100 µM (inactive)
same,GI50,SNB-75,> 100 µM (inactive)
same,GI50,HCT-116,> 100 µM (inactive)
